Measurements: patent US6881584B1, “Infrared thermography” (SmithKline Beecham Corporation, priority 1998, dated 2005)

Assays:
intrascapular region = test: Intrascapular thermogenesis in inbred mouse strains on high and low fat diets; type: in vivo, mice; conditions: 1 mg/kg i.p., 60 min
Description: (§1) Male AKR/J, C57BL/6J, and SWR/J mice were purchased from 4-8 weeks of age from Jackson Laboratories (Bar Harbor, Me.). Mice were fed high and low fats diets containing high sucrose as defined by Surwit et al., (Metabolism 44(5):645-651 (1995)). After 14 weeks on these diets, the intrascapular fur was shaved, the animals were dosed (intraperitineal) with 1 mg/kg of BRL37344, and the animals were anesthetized with isofluorane. Nude mice (BALB/C) were 6-8 weeks old and were dosed with inhalant two times before thermal profiling. The Lewis rat strain (200-250 g) were used for both the MED and inflammation experiments. Infrared thermographic images and temperature calculations were recorded using an Agema Thermovision 900 Infrared System.
One environmental component that alters the metabolic rate in individuals with a genetic predisposition towards diabetes, dyslipidemia, or obesity is diet. It was unknown if thermography could be used to measure the effects of diet on drug-induced changes in heat production in animals with different genotypes. Thus, three different inbred strains of mice, AKR/J, C57BL/6J, and SWR/J, were maintained on high and low fat diets for 14 weeks before treating with the β3-adrenoceptor agonist, BRL37344. The heat produced in the intrascapular region was measured before and after 60 min treatment using infrared thermography. […] Thus, this technique may be used to select, rank order for the efficacy and potency of compounds with the, desired properties for a given environment or genetic background. Similarly, this technique can be used to identify, rank, and select animals and environmental factors with the desired properties for a given drug candidate.

[1] = test system: interscapular brown adipose tissue (IBAT); test: IBAT thermogenesis in ob/ob mice, shaved or skin replaced with IR transparent adhesive; type: in vivo; conditions: 0.01-1 mg/kg i.g., 1 hour
Description: FIG. 28. Interscapular brown adipose tissue (IBAT) thermogenesis in ob/ob mice 1 hour after treatment with the […]-adrenoceptor agonist BRL37344 detected by IR thermography. Ten week old male ob/ob mice (Jackson Labs, Bar Harbor, Me.) were housed 5 animals/cage at 72° F. and 50% relative humidity with a 12 h light and dark cycle. They were fed chow diet (NIH R&M/Auto 6F-Ovals 5K67, PMI Feeds® Inc., Richmond, Ind.) and water ad libitum. Mice were dosed at 0.0, 0.01, 0.1, 0.3, or 1 mg/kg BRL37344 in water vehicle (0.25 mL i.g.; n=20 per dose). All animals were anesthetized with isofluorane and shaved to expose the area of interest prior to IR scanning. […] Images were recorded at 1 min intervals for 5 min with a frame averaging rate of 32 frames/sec. Acquired images were analyzed for average temperatures using an in-house image processing software application (Roboimage). Data are expressed as either average temperature/area or delta temperature/area (drug treated-vehicle treated).
The top panels show IR images of the interscapular regions of mice whose skin was removed and Bioclusive adhesive covering placed over the IBAT or mice who have been shaved only following treatment with BRL37344 at the doses indicated for 1 hour. Quantification of IR signal in the IBAT region is shown in the bottom panel. […]

C3H10T1/2 adipocytes [2] = test: Lipolysis in adipocytes treated with β-AR-agonists; type: cell-based; conditions: adipocytes, dose response; read-out: EC50 (nM) Lipolysis
Description: (§2) Human subcutaneous adipocytes were purchased from Zen-Bio, Inc. (Research Triangle Park, N.C.). C3H10T1/2 clone 8 fibroblasts were differentiated into adipocytes as previously described (Lenhard et al, Biochem. Pharmacol. 54:801-808 (1997), Paulik and Lenhard, Cell Tissue Res. 290:79-87 (1997)). After 7 days in culture, triglyceride accumulation was determined by adding lipoprotein lipase and GPO-Trinder reagent (assay kit 337-B, Sigma Diagnostics, St. Louis, Mo.) to the cells (50 μl/cm^2) and incubating the lysates at 37° C. for 2 hours. The optical density was measured using a spectrophotometer set at a wavelength of 540 nm. Lipolysis was measured as previously described (Lenhard et al, Biochem. Pharmacol. 54:801-808 (1997)).
(§3) As a control, the effects of β-AR-agonists on lipolysis was also measured. […] In general, this expands to measuring thermogenic activity of both catabolic and anabolic mediated-effects of potential drug candidates.

C3H10T1/2 adipocytes [3] = test: Infrared thermography of thermogenesis in cultured adipocytes (β-AR-agonists); type: cell-based; conditions: for stimulation of thermogenesis: C3H10T1/2 adipocytes; for EC50: adipocytes, infrared thermography, dose response, read-out: EC50 (nM) Thermogenesis
Description: as §2
Heat generation was measured using a Stirling cooled Agema Thermovision 900 Infrared System AB (Marietta, Ga.) equipped with a SW Scanner and 40°×25° lens which detects a 2-5.4 micron spectral response. […] The focal distance was 6 cm. Images were captured using a recurs function set at 16 or an averaging function set at 32. The data was analyzed using OS-9 advanced systems and ERIKA 2.00 software according to the manufacturer's specifications (FLIR Infrared Systems AB, Danderyd, Sweden). Thermography of adipocytes was performed by maintaining the ambient temperature of the cultured cells at 37±0.02° C. using a Queue Systems Inc. (Parkersburg, W.Va.) incubator, model QWJ500SABA. Spectral analysis of yeast was performed at 30±0.02° C. using the same incubator system. After treating the cells with experimental agents (e.g., rotenone etc.), the temperature was equilibrated for 10 minutes in the incubator before measuring real time thermogenesis for all microtiter plate applications. Various color scales in the visible wavelength were used to depict the temperature fluctuations of the recorded images. Although temperature scales are constant, the color scale images are variable and can be adjusted with level and span controls.
The β3-AR-agonists are candidate therapeutic agents for the treatment of diabetes and obesity. Although, the mechanism of action for these agents is thought to involve increased metabolic rate (Scarpace, Ann. N.Y. Acad. Sci. 813:111-116 (1997)), it has yet to be shown that β-AR-agonists increase heat output by adipocytes. Therefore, it was determined whether infrared imaging could be used to monitor the effects of β-AR-agonists on thermogenesis in cultured adipocytes.
as §3

yeast = type: cell-based
Description: Heat generation was measured using a Stirling cooled Agema Thermovision 900 Infrared System AB (Marietta, Ga.) equipped with a SW Scanner and 40°×25° lens which detects a 2-5.4 micron spectral response. […] The focal distance was 6 cm. Images were captured using a recurs function set at 16 or an averaging function set at 32. The data was analyzed using OS-9 advanced systems and ERIKA 2.00 software according to the manufacturer's specifications (FLIR Infrared Systems AB, Danderyd, Sweden). […] Spectral analysis of yeast was performed at 30±0.02° C. using the same incubator system. After treating the cells with experimental agents (e.g., rotenone etc.), the temperature was equilibrated for 10 minutes in the incubator before measuring real time thermogenesis for all microtiter plate applications. Various color scales in the visible wavelength were used to depict the temperature fluctuations of the recorded images. Although temperature scales are constant, the color scale images are variable and can be adjusted with level and span controls.

human adipocytes = test: Infrared thermography of human adipocytes in 96-well plates; type: cell-based; conditions: dose response, relative to untreated cells
Description: Heat generation was measured using a Stirling cooled Agema Thermovision 900 Infrared System AB (Marietta, Ga.) equipped with a SW Scanner and 40°×25° lens which detects a 2-5.4 micron spectral response. […] The focal distance was 6 cm. Images were captured using a recurs function set at 16 or an averaging function set at 32. The data was analyzed using OS-9 advanced systems and ERIKA 2.00 software according to the manufacturer's specifications (FLIR Infrared Systems AB, Danderyd, Sweden). Thermography of adipocytes was performed by maintaining the ambient temperature of the cultured cells at 37±0.02° C. using a Queue Systems Inc. (Parkersburg, W.Va.) incubator, model QWJ500SABA. […] After treating the cells with experimental agents (e.g., rotenone etc.), the temperature was equilibrated for 10 minutes in the incubator before measuring real time thermogenesis for all microtiter plate applications. Various color scales in the visible wavelength were used to depict the temperature fluctuations of the recorded images. Although temperature scales are constant, the color scale images are variable and can be adjusted with level and span controls.

C3H10T1/2 cells = test: Infrared thermography of heat production in differentiating C3H10T1/2 cells (PPARγ agonists); type: cell-based; conditions: Mus musculus, C3H 10T1/2, in the presence of insulin and 9-cis retinoic acid (FIG. 7), read-out: EC50(μM), thermogenesis and lipogenesis assays
Description: as §2
Heat generation was measured using a Stirling cooled Agema Thermovision 900 Infrared System AB (Marietta, Ga.) equipped with a SW Scanner and 40°×25° lens which detects a 2-5.4 micron spectral response. […] The focal distance was 6 cm. Images were captured using a recurs function set at 16 or an averaging function set at 32. The data was analyzed using OS-9 advanced systems and ERIKA 2.00 software according to the manufacturer's specifications (FLIR Infrared Systems AB, Danderyd, Sweden). […] Various color scales in the visible wavelength were used to depict the temperature fluctuations of the recorded images. […]

whole back = test: Infrared thermography of drug-induced thermogenesis in humans; type: in vivo, human; conditions: 60 minutes after 0.6-0.7 mg/kg
Description: The effect of ephedrine on thermogenesis in two human subjects was detected by infrared Imaging 60 minutes after treatment with ephedrine at a dose of 0.6-0.7 mg/kg. […] Thus, infrared thermography can be used as a non-invasive surrogate assay to evaluate the efficacy, potency, pharmacokinetics, pharmocodynamics of drugs in clinical studies.

limb inflammation = test: PGPS arthritis model, limb thermogenesis; type: in vivo, rat
Description: as §1
Arthritis is a disease characterized by inflammation of the joints and can be treated with antiinflammatory agents. Because inflammatory responses are associated with increased thermogenesis at the site of the response, arthritis and the efficacy of arthritis drugs can be monitored by thermography. […] The other limb was not treated. […] Thus, infrared thermography is a useful tool for monitoring inflammatory responses and the efficacy of antiinflammatory agents as well as providing a method for screening, selecting and evaluating the effectiveness of drug candidates for treating arthritic indications.

C[C@H](Cc1ccc(OCC(=O)O)cc1)NC[C@H](O)c1cccc(Cl)c1 [BRL37344]
thermogenic response, high vs low fat diet (intrascapular region; AKR/J mice (obesity prone)): greater thermogenic response to BRL37344 when fed the higher fat diet
thermogenic response, high vs low fat diet (intrascapular region; C57BL/6J mice): little difference in the thermogenic response
thermogenic response, high vs low fat diet (intrascapular region; SWR/J mice (obesity resistant)): greater thermogenic response when fed the lower fat diet
IBAT thermogenesis ([1]; shaved only): thermogenesis increased
IBAT thermogenesis ([1]; skin removed (peelback) and Bioclusive adhesive): demonstrate a dose-response

C[C@H](Cc1ccc2c(c1)OC(C(=O)[O-])(C(=O)[O-])O2)NC[C@H](O)c1cccc(Cl)c1.[Na+].[Na+] [CL316253]
EC50 (C3H10T1/2 adipocytes [2]): 7.9 nM
thermogenesis versus treatment time (C3H10T1/2 adipocytes [3]; 15 min vs 18 hours treatment): greater after 15 min than after 18 hours
stimulation of thermogenesis (C3H10T1/2 adipocytes [3]): stimulated
EC50 (C3H10T1/2 adipocytes [3]): 8.9 nM
dose dependence of thermogenic effect (C3H10T1/2 adipocytes [3]; dose range 0.8-100 nM): dose dependent thermogenic effect

N#CC(C#N)=NNc1ccc(OC(F)(F)F)cc1 [FCCP, carbonyl cyanide p-(trifluoromethoxy)phenylhydrazone]
thermogenesis in yeast (yeast): stimulated heat production
thermogenesis in human adipocytes (human adipocytes): stimulated heat production

CC[C@H]1/C=C/C=C/C[C@@H](C)[C@H](O)[C@@](C)(O)C(=O)[C@@H](C)[C@H](O)[C@@H](C)C(=O)[C@@H](C)[C@H](O)[C@@H](C)/C=C/C(=O)O[C@@H]2[C@H](C)[C@H](CC1)O[C@]1(CC[C@H](C)[C@H](C[C@@H](C)O)O1)[C@H]2C [Oligomycin]
EC50 (C3H10T1/2 adipocytes [3]; Mus musculus, C3H 10T1/2): 9.2 nM

COc1ccc(CCNCC(O)COc2ccc(O)c(O)c2)cc1OC (stereo not shown) [RO363]
EC50 (C3H10T1/2 adipocytes [2]): 1000 nM
stimulation of thermogenesis (C3H10T1/2 adipocytes [3]): less effective than CL316243 or isoproterenol
EC50 (C3H10T1/2 adipocytes [3]): 956 nM

C[C@@H]1C[C@@H]([C@H](O)CC2CC(=O)NC(=O)C2)C(=O)[C@@H](C)C1 [cycloheximide]
effect on β3-AR-mediated thermogenesis (C3H10T1/2 adipocytes [3]; 100 μM): had no effect

O=C1NC(=O)C(Cc2ccc3c(c2)CC[C@H](Cc2ccccc2)O3)S1 (stereo partly shown) [englitazone]
EC50 (C3H10T1/2 cells): > 10 µM

CN[C@@H](C)[C@H](O)c1ccccc1 [ephedrine]
Delta T (whole back; subject A): 0.63 °C
Delta T (whole back; subject B): 0.46 °C

C[C@]12C=CC(=O)C=C1CC[C@@H]1[C@@H]2[C@@H](O)C[C@@]2(C)[C@H]1CC[C@]2(O)C(=O)CO [prednisolone]
thermogenesis of arthritic limb after treatment (limb inflammation; PGPS arthritis model, 6 mg/kg p.o.): reverses the elevation in thermogenesis

peptidoglycan polysaccharide [PGPS]
thermogenesis of injected limb vs untreated limb (limb inflammation; limb injected for two weeks): higher level of thermogenesis in the treated limb than in the untreated limb
